# Molecular target: T1, E. coli-expressed nitrilase (Alcaligenes faecalis, UniProt P20960)
# T1 construct: expressed in transfected cells; host or cells: Escherichia coli TG10 (pDHE1650 pAgro4 pHSG575), whole-cell suspension
# Assay: Nitrilase activity test of the cell suspension after storage with aldehyde
# Format: cell-based, Escherichia coli
# Description: The Escherichia coli strain (TG10 pDHE1650 pAgro4 pHSG575) was fermented in a 20 l bioreactor. The reactor, containing a 10 l working volume, was inoculated with 200 ml of preliminary culture from shaker flasks. The preliminary culture medium corresponds to the main culture medium.
# The fermentation is carried out at a temperature of 37° C. The gassing is regulated between 8-30 l/min, while the rotation speed of the stirrer is regulated at […], in order to maintain a pO2 of not less than 20%. After a fermentation period of 1 h, the culture is induced with IPTG (0.15 mM). 18.5 g of rhamnose feed solution are then added. After the initially introduced quantity of glycerol has been consumed, glycerol is then fed in continuously. After a fermentation period of 44 h, cell suspensions of 50 g DBM/l and 50 to 60 ku/l are obtained. The cells are cooled down to 4° C.
# 50 μl of cell suspension are pipetted into 880 μl of sodium potassium phosphate buffer (10 mM) and the whole is equilibrated at 30° C. The reaction is started by adding 20 μl of methanolic mandelonitrile solution (12%). After 10 min, the enzyme reaction is stopped by adding 50 μl of 1M HC. The cell mass is centrifuged off and the concentration of mandelic acid in the supernatant is measured by means of HPLC (ODS Hypersil 100*2.0 mm, mobile phase: 75% H3PO4 (14.8 mM)/25% methanol; flow rate: 0.5 ml/min; injection volume: 2 μl; column temperature: 40° C.; detection: 210 nm; mandelic acid retention time: 0.9 min).
# (§1) 14 h after the end of the fermentation, the cell suspension was adjusted to a pH of 6.0, 6.6 or 7.2 with NaOH or H2SO4 and then treated with benzaldehyde. The samples were stored at 4° C. or 22° C. Enzyme activity was determined at 0.6, 3.6 and 6.6 days after the end of the fermentation.
# as §1, with “6.0, 6.6.” for “6.0, 6.6”, “with 2-chlorobenzaldehyde.” for “with benzaldehyde.”, “C. The enzyme” for “C. Enzyme”
# [1] = storage at 4° C., pH 6.0, 1 mM aldehyde, storage period 0.6 d
# [2] = storage at 4° C., pH 6.0, 1 mM aldehyde, storage period 3.6 d
# [3] = storage at 4° C., pH 6.0, 1 mM aldehyde, storage period 6.6 d
# [4] = storage at 4° C., pH 6.0, 5 mM aldehyde, storage period 0.6 d
# [5] = storage at 4° C., pH 6.0, 5 mM aldehyde, storage period 3.6 d
# [6] = storage at 4° C., pH 6.0, 5 mM aldehyde, storage period 6.6 d
# [7] = storage at 4° C., pH 6.0, 10 mM aldehyde, storage period 0.6 d
# [8] = storage at 4° C., pH 6.0, 10 mM aldehyde, storage period 3.6 d
# [9] = storage at 4° C., pH 6.0, 10 mM aldehyde, storage period 6.6 d
# [10] = storage at 4° C., pH 6.6, 1 mM aldehyde, storage period 0.6 d
# [11] = storage at 4° C., pH 6.6, 1 mM aldehyde, storage period 3.6 d
# [12] = storage at 4° C., pH 6.6, 1 mM aldehyde, storage period 6.6 d
# [13] = storage at 4° C., pH 6.6, 5 mM aldehyde, storage period 0.6 d
# [14] = storage at 4° C., pH 6.6, 5 mM aldehyde, storage period 3.6 d
# [15] = storage at 4° C., pH 6.6, 5 mM aldehyde, storage period 6.6 d
# [16] = storage at 4° C., pH 6.6, 10 mM aldehyde, storage period 0.6 d
# [17] = storage at 4° C., pH 6.6, 10 mM aldehyde, storage period 3.6 d
# [18] = storage at 4° C., pH 6.6, 10 mM aldehyde, storage period 6.6 d
# [19] = storage at 4° C., pH 7.2, 1 mM aldehyde, storage period 0.6 d
# [20] = storage at 4° C., pH 7.2, 1 mM aldehyde, storage period 3.6 d
# [21] = storage at 4° C., pH 7.2, 1 mM aldehyde, storage period 6.6 d
# [22] = storage at 4° C., pH 7.2, 5 mM aldehyde, storage period 0.6 d
# [23] = storage at 4° C., pH 7.2, 5 mM aldehyde, storage period 3.6 d
# [24] = storage at 4° C., pH 7.2, 5 mM aldehyde, storage period 6.6 d
# [25] = storage at 4° C., pH 7.2, 10 mM aldehyde, storage period 0.6 d
# [26] = storage at 4° C., pH 7.2, 10 mM aldehyde, storage period 3.6 d
# [27] = storage at 4° C., pH 7.2, 10 mM aldehyde, storage period 6.6 d
# [28] = storage at 22° C., pH 6.0, 1 mM aldehyde, storage period 0.6 d
# [29] = storage at 22° C., pH 6.0, 1 mM aldehyde, storage period 3.6 d
# [30] = storage at 22° C., pH 6.0, 1 mM aldehyde, storage period 6.6 d
# [31] = storage at 22° C., pH 6.0, 5 mM aldehyde, storage period 0.6 d
# [32] = storage at 22° C., pH 6.0, 5 mM aldehyde, storage period 3.6 d
# [33] = storage at 22° C., pH 6.0, 5 mM aldehyde, storage period 6.6 d
# [34] = storage at 22° C., pH 6.0, 10 mM aldehyde, storage period 0.6 d
# [35] = storage at 22° C., pH 6.0, 10 mM aldehyde, storage period 3.6 d
# [36] = storage at 22° C., pH 6.0, 10 mM aldehyde, storage period 6.6 d
# [37] = storage at 22° C., pH 6.6, 1 mM aldehyde, storage period 0.6 d
# [38] = storage at 22° C., pH 6.6, 1 mM aldehyde, storage period 3.6 d
# [39] = storage at 22° C., pH 6.6, 1 mM aldehyde, storage period 6.6 d
# [40] = storage at 22° C., pH 6.6, 5 mM aldehyde, storage period 0.6 d
# [41] = storage at 22° C., pH 6.6, 5 mM aldehyde, storage period 3.6 d
# [42] = storage at 22° C., pH 6.6, 5 mM aldehyde, storage period 6.6 d
# [43] = storage at 22° C., pH 6.6, 10 mM aldehyde, storage period 0.6 d
# [44] = storage at 22° C., pH 6.6, 10 mM aldehyde, storage period 3.6 d
# [45] = storage at 22° C., pH 6.6, 10 mM aldehyde, storage period 6.6 d
# [46] = storage at 22° C., pH 7.2, 1 mM aldehyde, storage period 0.6 d
# [47] = storage at 22° C., pH 7.2, 1 mM aldehyde, storage period 3.6 d
# [48] = storage at 22° C., pH 7.2, 1 mM aldehyde, storage period 6.6 d
# [49] = storage at 22° C., pH 7.2, 5 mM aldehyde, storage period 0.6 d
# [50] = storage at 22° C., pH 7.2, 5 mM aldehyde, storage period 3.6 d
# [51] = storage at 22° C., pH 7.2, 5 mM aldehyde, storage period 6.6 d
# [52] = storage at 22° C., pH 7.2, 10 mM aldehyde, storage period 0.6 d
# [53] = storage at 22° C., pH 7.2, 10 mM aldehyde, storage period 3.6 d
# [54] = storage at 22° C., pH 7.2, 10 mM aldehyde, storage period 6.6 d
# T1 sequence (P20960 whole entry Q122E/S243P/E312D/I323T/Q324R/P330Q/H331G/T335K/A336I/P338S/V341I/Q343H/T344P): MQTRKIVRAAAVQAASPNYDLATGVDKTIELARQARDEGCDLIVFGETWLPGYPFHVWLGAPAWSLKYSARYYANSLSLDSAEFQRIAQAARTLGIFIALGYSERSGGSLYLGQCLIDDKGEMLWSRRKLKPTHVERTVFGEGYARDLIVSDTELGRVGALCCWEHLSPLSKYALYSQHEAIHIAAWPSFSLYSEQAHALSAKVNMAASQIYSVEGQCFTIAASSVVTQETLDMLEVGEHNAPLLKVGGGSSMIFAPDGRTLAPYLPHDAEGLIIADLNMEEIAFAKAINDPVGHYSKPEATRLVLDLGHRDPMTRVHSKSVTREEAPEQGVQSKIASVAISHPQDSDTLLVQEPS
structure (smiles),measurement,setting,value
O=Cc1ccccc1Cl [2-chlorobenzaldehyde],Activity in kU/l,[1],52.4 kU/l
same,Activity in kU/l,[2],53.5 kU/l
same,Activity in kU/l,[3],56.9 kU/l
same,Activity in kU/l,[4],52.5 kU/l
same,Activity in kU/l,[5],55.6 kU/l
same,Activity in kU/l,[6],53.8 kU/l
same,Activity in kU/l,[7],53.5 kU/l
same,Activity in kU/l,[8],55.7 kU/l
same,Activity in kU/l,[9],47.6 kU/l
same,Activity in kU/l,[10],48.8 kU/l
same,Activity in kU/l,[11],55.1 kU/l
same,Activity in kU/l,[12],54.7 kU/l
same,Activity in kU/l,[13],50.6 kU/l
same,Activity in kU/l,[14],56.3 kU/l
same,Activity in kU/l,[15],53.6 kU/l
same,Activity in kU/l,[16],47.4 kU/l
same,Activity in kU/l,[17],55.0 kU/l
same,Activity in kU/l,[18],58.5 kU/l
same,Activity in kU/l,[19],51.3 kU/l
same,Activity in kU/l,[20],48.3 kU/l
same,Activity in kU/l,[21],45.2 kU/l
same,Activity in kU/l,[22],53.3 kU/l
same,Activity in kU/l,[23],51.2 kU/l
same,Activity in kU/l,[24],48.1 kU/l
same,Activity in kU/l,[25],48.3 kU/l
same,Activity in kU/l,[26],51.0 kU/l
same,Activity in kU/l,[27],49.9 kU/l
same,Activity in kU/l,[28],52.4 kU/l
same,Activity in kU/l,[29],53.8 kU/l
same,Activity in kU/l,[30],54.5 kU/l
same,Activity in kU/l,[31],52.5 kU/l
same,Activity in kU/l,[32],55.0 kU/l
same,Activity in kU/l,[33],59.1 kU/l
same,Activity in kU/l,[34],53.5 kU/l
same,Activity in kU/l,[35],55.7 kU/l
same,Activity in kU/l,[36],52.4 kU/l
same,Activity in kU/l,[37],48.8 kU/l
same,Activity in kU/l,[38],55.0 kU/l
same,Activity in kU/l,[39],57.2 kU/l
same,Activity in kU/l,[40],50.6 kU/l
same,Activity in kU/l,[41],56.7 kU/l
same,Activity in kU/l,[42],55.5 kU/l
same,Activity in kU/l,[43],47.4 kU/l
same,Activity in kU/l,[44],56.2 kU/l
same,Activity in kU/l,[45],58.6 kU/l
same,Activity in kU/l,[46],51.3 kU/l
same,Activity in kU/l,[47],52.8 kU/l
same,Activity in kU/l,[48],53.2 kU/l
same,Activity in kU/l,[49],53.3 kU/l
same,Activity in kU/l,[50],51.4 kU/l
same,Activity in kU/l,[51],50.1 kU/l
same,Activity in kU/l,[52],48.3 kU/l
same,Activity in kU/l,[53],52.9 kU/l
same,Activity in kU/l,[54],54.0 kU/l
O=Cc1ccccc1 [benzaldehyde],Activity in kU/l,[1],55.1 kU/l
same,Activity in kU/l,[2],49.9 kU/l
same,Activity in kU/l,[3],48.3 kU/l
same,Activity in kU/l,[4],51.8 kU/l
same,Activity in kU/l,[5],52.3 kU/l
same,Activity in kU/l,[6],53.0 kU/l
same,Activity in kU/l,[7],51.3 kU/l
same,Activity in kU/l,[8],51.5 kU/l
same,Activity in kU/l,[9],50.2 kU/l
same,Activity in kU/l,[10],53.2 kU/l
same,Activity in kU/l,[11],52.3 kU/l
same,Activity in kU/l,[12],52.5 kU/l
same,Activity in kU/l,[13],47.1 kU/l
same,Activity in kU/l,[14],52.0 kU/l
same,Activity in kU/l,[15],55.7 kU/l
same,Activity in kU/l,[16],51.3 kU/l
same,Activity in kU/l,[17],55.5 kU/l
same,Activity in kU/l,[18],51.9 kU/l
same,Activity in kU/l,[19],55.8 kU/l
same,Activity in kU/l,[20],46.8 kU/l
same,Activity in kU/l,[21],47.5 kU/l
same,Activity in kU/l,[22],47.1 kU/l
same,Activity in kU/l,[23],48.3 kU/l
same,Activity in kU/l,[24],50.7 kU/l
same,Activity in kU/l,[25],53.8 kU/l
same,Activity in kU/l,[26],51.2 kU/l
same,Activity in kU/l,[27],49.2 kU/l
same,Activity in kU/l,[28],55.1 kU/l
same,Activity in kU/l,[29],50.6 kU/l
same,Activity in kU/l,[30],51.0 kU/l
same,Activity in kU/l,[31],51.8 kU/l
same,Activity in kU/l,[32],51.5 kU/l
same,Activity in kU/l,[33],54.9 kU/l
same,Activity in kU/l,[34],51.3 kU/l
same,Activity in kU/l,[35],53.0 kU/l
same,Activity in kU/l,[36],49.2 kU/l
same,Activity in kU/l,[37],53.2 kU/l
same,Activity in kU/l,[38],53.0 kU/l
same,Activity in kU/l,[39],53.1 kU/l
same,Activity in kU/l,[40],47.1 kU/l
same,Activity in kU/l,[41],54.3 kU/l
same,Activity in kU/l,[42],58.0 kU/l
same,Activity in kU/l,[43],51.3 kU/l
same,Activity in kU/l,[44],49.4 kU/l
same,Activity in kU/l,[45],55.4 kU/l
same,Activity in kU/l,[46],55.8 kU/l
same,Activity in kU/l,[47],50.4 kU/l
same,Activity in kU/l,[48],48.7 kU/l
same,Activity in kU/l,[49],47.1 kU/l
same,Activity in kU/l,[50],51.7 kU/l
same,Activity in kU/l,[51],52.9 kU/l
same,Activity in kU/l,[52],53.8 kU/l
same,Activity in kU/l,[53],52.7 kU/l
same,Activity in kU/l,[54],51.3 kU/l
